Patent publication US8618114B2 (priority 2008, dated 2013)
Counter-ions that a name gives are not always drawn.

What follows are compounds tested against T1, 5-HT6 receptor (Homo sapiens (Human), UniProt P50406) (assay: functional assay for serotonin 5-HT6 receptor inhibition (serotonin-induced intracellular cAMP, LANCE cAMP kit, HEK 293 cells)). Conditions: HEK 293 cells with expressed 5-HT6 receptor; reduction of serotonin-induced intracellular cAMP.
T1 sequence (P50406 whole entry): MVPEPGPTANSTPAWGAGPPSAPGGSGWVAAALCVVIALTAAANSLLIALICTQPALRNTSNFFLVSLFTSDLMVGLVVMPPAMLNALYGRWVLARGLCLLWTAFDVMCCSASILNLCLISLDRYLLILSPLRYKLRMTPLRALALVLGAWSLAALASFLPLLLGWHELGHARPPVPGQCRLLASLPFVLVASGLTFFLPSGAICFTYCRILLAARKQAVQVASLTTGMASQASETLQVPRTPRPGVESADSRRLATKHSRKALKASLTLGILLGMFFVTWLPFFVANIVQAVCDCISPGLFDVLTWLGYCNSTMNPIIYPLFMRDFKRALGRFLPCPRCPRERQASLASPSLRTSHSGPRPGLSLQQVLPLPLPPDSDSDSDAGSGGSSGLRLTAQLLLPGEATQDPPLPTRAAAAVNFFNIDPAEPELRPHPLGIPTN
Format: cell-based
Method: Determination of antagonistic activity of compounds of the general formula 1 towards 5-HT6 receptors. Compounds of the general formula 1 were tested for their ability to prevent 5-HT6 receptors activation by serotonin. HEK 293 cells (cells of human embryo's kidney) with artificially expressed 5-HT6 receptor, activation of which by serotonin leads to increasing the concentration of intracellular cAMP, were used. The level of intracellular cAMP was determined using reagent kit LANCE cAMP (PerkinElmer) according to the method described by the manufacturer of the kit [http://las.perkinelmer.com/content/Manuals/MAN_LANCEcAMP384KitUser.pdf]. Effectiveness of the compounds was estimated by their ability to reduce the level of intracellular cAMP induced by serotonin. Table 4 presents IC50 values for the compounds of general formula 1 in the setting of functional assay for serotonin 5-HT6 receptor inhibition. The data given testify their moderate or high antagonistic activity.
With `CSc1nn2c(C)c(Cl)c(C)nc2c1S(=O)(=O)c1ccccc1` [1.1(4)] the IC50 was 300 nM.
For `CSc1nn2c(C)c(Oc3ccccc3)c(C)nc2c1S(=O)(=O)c1ccccc1` [1.1(6)], the IC50 was > 10000 nM.
`CSc1nn2c(C)c(Oc3cccnc3)c(C)nc2c1S(=O)(=O)c1ccccc1` [1.1(7)] gave an IC50 of 514 nM.
Work on `CSc1nn2cccnc2c1S(=O)(=O)c1ccccc1` [1.1.1(1), 2-methylsulfanyl-3-phenylsulfonyl-pyrazolo[1,5-a]pyrimidine] yielded an IC50 of 5200 nM.
Work on `CSc1nn2cccnc2c1S(=O)(=O)c1cccc(Cl)c1` [1.1.1(3)] yielded an IC50 of 473 nM.
In the case of `CSc1nn2cccnc2c1S(=O)(=O)c1ccc(F)c(Cl)c1` [1.1.1(4)], the IC50 is reported as 912 nM.
For `CSc1nn2cccnc2c1S(=O)(=O)c1cccc(C)c1` [1.1.1(6)], the IC50 was 2200 nM.
`CSc1nn2cccnc2c1S(=O)(=O)c1ccc(F)cc1` [1.1.1(7)] was tested, and the IC50 was 1870 nM.
Compound `CSc1nn2ccc(C)nc2c1S(=O)(=O)c1ccccc1` [1.1.2(1), 5-methyl-2-methylsulfanyl-3-phenylsulfonyl-pyrazolo[1,5-a]pyrimidine] has an IC50 of 450 nM.
`CSc1nn2ccc(C)nc2c1S(=O)(=O)c1ccc(F)cc1` [1.1.2(2), 5-methyl-2-methylsulfanyl-3-(4-fluorophenylsulfonyl)-pyrazolo[1,5-a]pyrimidine] was tested, and the IC50 was 996 nM.
For `CSc1nn2ccc(C)nc2c1S(=O)(=O)c1ccc(F)c(Cl)c1` [1.1.2(5), 5-methyl-2-methylsulfanyl-3-(4-fluoro-3-chlorophenylsulfonyl)-pyrazolo[1,5-a]pyrimidine], the IC50 was 187 nM.
`CSc1nn2c(C)ccnc2c1S(=O)(=O)c1ccccc1` [1.1.3(1), 7-methyl-2-methylsulfanyl-3-phenylsulfonyl-pyrazolo[1,5-a]pyrimidine] gave an IC50 of 1110 nM.
In the case of `CSc1nn2c(C)ccnc2c1S(=O)(=O)c1ccc(F)c(Cl)c1` [1.1.3(5), 7-methyl-2-methylsulfanyl-3-(4-fluoro-3-chlorophenylsulfonyl)-pyrazolo[1,5-a]pyrimidine], the IC50 is reported as 156 nM.
Work on `COCc1cc(C)n2nc(SC)c(S(=O)(=O)c3ccccc3)c2n1` [1.1.5(1), 7-methyl-2-methylsulfanyl-5-(methoxymethyl)-3-phenylsulfonyl-pyrazolo[1,5-a]pyrimidine] yielded an IC50 of 414 nM.
`CSc1nn2c(CO)cc(C)nc2c1S(=O)(=O)c1ccccc1` [1.1.6(1), 7-(hydroxymethyl)-5-methyl-2-methylsulfanyl-3-phenylsulfonyl-pyrazolo[1,5-a]pyrimidine] was tested, and the IC50 was 73 nM.
With `COc1cc(-c2ccccn2)nc2c(S(=O)(=O)c3ccccc3)c(SC)nn12` [1.1.8(2), 2-methylsulfanyl-7-methoxy-5-(pyridin-2-yl)-3-phenylsulfonyl-pyrazolo[1,5-a]pyrimidine] the IC50 was 30100 nM.
For `COc1cc(-c2cccnc2)nc2c(S(=O)(=O)c3ccccc3)c(SC)nn12` [1.1.8(3), 2-methylsulfanyl-7-methoxy-5-(pyridin-3-yl)-3-phenylsulfonyl-pyrazolo[1,5-a]pyrimidine], the IC50 was < 10 nM.
`CNc1nn2c(N3CCOCC3)cc(C)nc2c1S(=O)(=O)c1ccccc1` [1.1.12(5)] was tested, and the IC50 was 197 nM.
`CNc1nn2c(C)c(Cl)c(C)nc2c1S(=O)(=O)c1ccccc1` [1.2(1)] was tested, and the IC50 was 52 nM.
Compound `CNc1nn2c(-c3ccccn3)cc(-c3ccccn3)nc2c1S(=O)(=O)c1ccccc1` [1.2(4)] has an IC50 of 723 nM.
Work on `CNc1nn2cccnc2c1S(=O)(=O)c1ccccc1` [1.2.1(1), 2-methylamino-3-phenylsulfonyl-pyrazolo[1,5-a]pyrimidine] yielded an IC50 of 76 nM.
For `CNc1nn2cccnc2c1S(=O)(=O)c1ccc(F)cc1` [1.2.1(2), 2-methylamino-3-(4-fluorophenylsulfonyl)-pyrazolo[1,5-a]pyrimidine], the IC50 was 45 nM.
`CNc1nn2cccnc2c1S(=O)(=O)c1cccc(Cl)c1` [1.2.1(4), 2-methylamino-3-(3-chlorophenylsulfonyl)-pyrazolo[1,5-a]pyrimidine] showed an IC50 of 24 nM.
With `CNc1nn2ccc(C)nc2c1S(=O)(=O)c1ccccc1` [1.2.2(1), 5-methyl-2-methylamino-3-phenylsulfonyl-pyrazolo[1,5-a]pyrimidine] the IC50 was 16 nM.
Work on `CNc1nn2c(C)ccnc2c1S(=O)(=O)c1ccccc1` [1.2.3(1), 7-methyl-2-methylamino-3-phenylsulfonyl-pyrazolo[1,5-a]pyrimidine] yielded an IC50 of 3 nM.
For `CNc1nn2c(COC)cc(C)nc2c1S(=O)(=O)c1ccccc1` [1.2.4(1), 5-methyl-2-methylamino-7-(methoxymethyl)-3-phenylsulfonyl-pyrazolo[1,5-a]pyrimidine], the IC50 was 101 nM.
With `CNc1nn2c(C)cc(COC)nc2c1S(=O)(=O)c1ccccc1` [1.2.5(1), 7-methyl-2-methylamino-5-(methoxymethyl)-3-phenylsulfonyl-pyrazolo[1,5-a]pyrimidine] the IC50 was 4 nM.
Compound `CNc1nn2c(CO)cc(C)nc2c1S(=O)(=O)c1ccccc1` [1.2.6(1), 7-(hydroxymethyl)-5-methyl-2-methylamino-3-phenylsulfonyl-pyrazolo[1,5-a]pyrimidine] has an IC50 of 4 nM.
`CNc1nn2c(C)cc(-c3ccncc3)nc2c1S(=O)(=O)c1ccccc1` [1.2.8(8), 7-methyl-2-methylamino-5-(pyridin-4-yl)-3-phenylsulfonyl-pyrazolo[1,5-a]pyrimidine] gave an IC50 of 4 nM.
`CNc1nn2c(-c3cccnc3)ccnc2c1S(=O)(=O)c1ccccc1` [1.2.9(2), 2-methylamino-7-(pyridin-3-yl)-3-phenylsulfonyl-pyrazolo[1,5-a]pyrimidine] was tested, and the IC50 was 1040 nM.
`CNc1nn2c(-c3cccnc3)cc(C)nc2c1S(=O)(=O)c1ccccc1` [1.2.9(7), 5-methyl-2-methylamino-7-(pyridin-3-yl)-3-phenylsulfonyl-pyrazolo[1,5-a]pyrimidine] gave an IC50 of 341 nM.
`CNc1nn2c(NC)cc(C)nc2c1S(=O)(=O)c1ccccc1` [1.2.12(1), 2,7-di(methylamino)-5-methyl-3-phenylsulfonyl-pyrazolo[1,5-a]pyrimidine] showed an IC50 of 9 nM.
For `CNc1nn2c(N(C)C)cc(C)nc2c1S(=O)(=O)c1ccccc1` [1.2.12(2), 7-dimethylamino-5-methyl-2-methylamino-3-phenylsulfonyl-pyrazolo[1,5-a]pyrimidine], the IC50 was 12 nM.
`CNc1nn2c(N(C)C)cc(-c3cccnc3)nc2c1S(=O)(=O)c1ccccc1` [1.2.12(9), 7-dimethylamino-2-methylamino-5-(pyridin-3-yl)-3-phenylsulfonyl-pyrazolo[1,5-a]pyrimidine] was tested, and the IC50 was 13 nM.
`CNc1nn2c(N(C)CCN(C)C)cc(C)nc2c1S(=O)(=O)c1ccccc1` [1.2.12(11)] gave an IC50 of 172 nM.
`CNc1nn2c(N(C)CCN(C)C)cc(C)nc2c1S(=O)(=O)c1ccccc1` [1.2.12(12)] showed an IC50 of 1860 nM.
`CNc1nn2c(C)c(CCCN)c(C)nc2c1S(=O)(=O)c1ccccc1` [1.2.22(4).HCl] showed an IC50 of 78 nM.
Compound `CNc1nn2c(C)c(CN)c(C)nc2c1S(=O)(=O)c1cccc(F)c1` [1.2.22(6).HCl] has an IC50 of 25.2 nM.
`CNc1nn2c(C)c(CN(C)C)c(C)nc2c1S(=O)(=O)c1ccccc1` [1.2.22(10).HCl] was tested, and the IC50 was 26 nM.
`CNc1nn2c(C)c(CN(C)C)c(C)nc2c1S(=O)(=O)c1cccc(Cl)c1` [1.2.22(11).HCl] was tested, and the IC50 was 22 nM.
`CNc1nn2c(C)c(CCN(C)C)c(C)nc2c1S(=O)(=O)c1ccccc1` [1.2.22(14).HCl] was tested, and the IC50 was 56.4 nM.
With `CNc1nn2c(C)c(N(C)C)c(C)nc2c1S(=O)(=O)c1ccccc1` [1.2.22(24).HCl] the IC50 was 6 nM.
`CNc1nn2c(C)cc(CN)nc2c1S(=O)(=O)c1ccc(F)cc1` [1.2.23(2).HCl] gave an IC50 of 37 nM.
Work on `CNc1nn2c(C)cc(CN(C)C)nc2c1S(=O)(=O)c1ccccc1` [1.2.23(10).HCl] yielded an IC50 of 60 nM.
In the case of `CNc1nn2c(C)cc(CN(C)C)nc2c1S(=O)(=O)c1cccc(Cl)c1` [1.2.23(11).HCl], the IC50 is reported as 67 nM.
With `CNc1nn2c(C)cc(CN(C)C)nc2c1S(=O)(=O)c1cccc(F)c1` [1.2.23(12).HCl] the IC50 was 70 nM.
In the case of `CNc1nn2c(CN)cc(C)nc2c1S(=O)(=O)c1ccccc1` [1.2.24(1).HCl], the IC50 is reported as 15 nM.
`CNc1nn2c(CN)cc(C)nc2c1S(=O)(=O)c1ccc(F)cc1` [1.2.24(2).HCl] was tested, and the IC50 was 22 nM.
`CNc1nn2c(CCN)cc(C)nc2c1S(=O)(=O)c1ccccc1` [1.2.24(3).HCl] gave an IC50 of 30 nM.
In the case of `CNc1nn2c(CN(C)C)cc(C)nc2c1S(=O)(=O)c1ccccc1` [1.2.24(10).HCl], the IC50 is reported as 21 nM.
For `CNc1nn2c(CN(C)C)cc(C)nc2c1S(=O)(=O)c1cccc(Cl)c1` [1.2.24(11).HCl], the IC50 was 33 nM.
In the case of `CNc1nn2c(CN(C)C)cc(C)nc2c1S(=O)(=O)c1cccc(F)c1` [1.2.24(12).HCl], the IC50 is reported as 35 nM.
Compound `CNc1nn2c(CCN(C)C)cc(C)nc2c1S(=O)(=O)c1ccccc1` [1.2.24(14).HCl] has an IC50 of 899 nM.

Each compound was assayed against T1, 5-HT6 receptor (assay: competitive radioligand binding ([3H] Lysergic acid diethylamide) to serotonin 5-HT6 receptors, HeLa cell membranes). Conditions: read-out: IC50, competitive assay of serotonin 5-HT6 receptor inhibition; displacement of 1.5 nM [3H] Lysergic acid diethylamide, 120 min at 37° C.
Method: Determination of activity of the compounds of the general formula 1 in the setting of competitive binding to serotonin 5-HT6 receptors.
Screening of the disclosed compounds for their potential ability to interact with serotonin 5-HT6 receptors was carried out by method of radioligand binding. For this purpose membrane species were prepared from expressing recombinant human 5-HT6 receptors HeLa cells by means of their homogenization in glass homogenizer with subsequent separation of plasmatic membranes from cell nucli, mitochondria's and cell wreckages by differential centrifugation. Determination of tested compounds binding to 5-HT6 receptors was carried out according to the method described in [Monsma F J Jr, Shen Y, Ward R P, Hamblin M W and Sibley D R, Cloning and expression of a novel serotonin receptor with high affinity for tricyclic psychotropic drugs. […] After incubation the samples were filtered in vacuo on glass-microfiber filters G/F (Millipor, USA), filters were washed three times with cold solution of the medium and radioactivity was measured by scintillation counter MicroBeta 340 (PerkinElmer, USA). Nonspecific binding which made up 30% of overall binding was determined by incubation of membrane preparations with radioligand in the presence of 5 μM Serotonin (5-HT). Methiothepin was used as positive control. Binding of the tested compounds to the receptor was determined by their ability to displace the radioligand and expressed in percent of displacement. The percent of displacement was calculated according to the following equation:
[formula] wherein: TA—was overall radioactivity in the presence of radioligand only, CA—was radioactivity in the presence of radioligand and tested compound and NA—was radioactivity in the presence of radioligand and Serotonin (5 μM).
For `CSc1nn2c(C)c(Cl)c(C)nc2c1S(=O)(=O)c1ccccc1` [1.1(4)], the IC50 was < 10 nM.
Compound `CSc1nn2c(C)c(Oc3ccccc3)c(C)nc2c1S(=O)(=O)c1ccccc1` [1.1(6)] has an IC50 of 50 nM.
In the case of `CSc1nn2ccc(C)nc2c1S(=O)(=O)c1ccc(F)cc1` [1.1.2(2), 5-methyl-2-methylsulfanyl-3-(4-fluorophenylsulfonyl)-pyrazolo[1,5-a]pyrimidine], the IC50 is reported as 50 nM.
`CSc1nn2c(C)ccnc2c1S(=O)(=O)c1ccccc1` [1.1.3(1), 7-methyl-2-methylsulfanyl-3-phenylsulfonyl-pyrazolo[1,5-a]pyrimidine] gave an IC50 of 40 nM.
For `COc1cc(-c2cccnc2)nc2c(S(=O)(=O)c3ccccc3)c(SC)nn12` [1.1.8(3), 2-methylsulfanyl-7-methoxy-5-(pyridin-3-yl)-3-phenylsulfonyl-pyrazolo[1,5-a]pyrimidine], the IC50 was < 10 nM.
With `CNc1nn2cccnc2c1S(=O)(=O)c1ccc(F)cc1` [1.2.1(2), 2-methylamino-3-(4-fluorophenylsulfonyl)-pyrazolo[1,5-a]pyrimidine] the IC50 was 18 nM.
`CNc1nn2cccnc2c1S(=O)(=O)c1cccc(Cl)c1` [1.2.1(4), 2-methylamino-3-(3-chlorophenylsulfonyl)-pyrazolo[1,5-a]pyrimidine] was tested, and the IC50 was 5.01 nM.
In the case of `CNc1nn2c(C)ccnc2c1S(=O)(=O)c1ccccc1` [1.2.3(1), 7-methyl-2-methylamino-3-phenylsulfonyl-pyrazolo[1,5-a]pyrimidine], the IC50 is reported as 0.74 nM.
In the case of `CNc1nn2c(COC)cc(C)nc2c1S(=O)(=O)c1ccccc1` [1.2.4(1), 5-methyl-2-methylamino-7-(methoxymethyl)-3-phenylsulfonyl-pyrazolo[1,5-a]pyrimidine], the IC50 is reported as 0.34 nM.
In the case of `CNc1nn2c(N3CCOCC3)cc(C)nc2c1S(=O)(=O)c1ccccc1` [1.2.12(5), 5-methyl-2-methylamino-7-(morfolin-4-yl)-3-phenylsulfonyl-pyrazolo[1,5-a]pyrimidine], the IC50 is reported as 31 nM.
Work on `CCOC(=O)Cc1c(C)nc2c(S(=O)(=O)c3ccccc3)c(NC(C)C)nn2c1C` [1.2.13(3)] yielded an IC50 of 1.28 nM.
`CNc1nn2c(C)c(CC(=O)N(C)C)c(C)nc2c1S(=O)(=O)c1ccccc1` [1.2.19(1).CH3CO2H] showed an IC50 of 15.3 nM.
